Reference: ChEMBL document CHEMBL1150788, “In vitro susceptibility of Sporothrix schenckii to six antifungal agents determined using three different methods” (2007)
Values after ≈ are worked out from the molar mass of the structure shown.

Tests used:
Type in all cases: functional
Sporothrix schenckii [1] = assay: Antifungal activity against Sporothrix schenckii P24255 isolate from cutaneous-lymphatic sporotrichosis patient after 72 hrs by modified NCCLS M38-A method
Sporothrix schenckii [2] = assay: Antifungal activity against Sporothrix schenckii PGAC0016 isolate from cutaneous-lymphatic sporotrichosis patient after 72 hrs by ATB Fungus 2 method
Sporothrix schenckii [3] = assay: Antifungal activity against Sporothrix schenckii P0019 isolate from cutaneous-lymphatic sporotrichosis patient after 72 hrs by Sensititre YeastOne method
Sporothrix schenckii [4] = assay: Antifungal activity against Sporothrix schenckii P24223 isolate from cutaneous-lymphatic sporotrichosis patient after 72 hrs by Sensititre YeastOne method
Sporothrix schenckii [5] = assay: Antifungal activity against Sporothrix schenckii MRSS4 isolate from cutaneous-lymphatic sporotrichosis patient after 72 hrs by Sensititre YeastOne method
Sporothrix schenckii [6] = assay: Antifungal activity against Sporothrix schenckii SSA29 isolate from cutaneous-lymphatic sporotrichosis patient after 72 hrs by modified NCCLS M38-A method
Sporothrix schenckii [7] = assay: Antifungal activity against Sporothrix schenckii P24255 isolate from cutaneous-lymphatic sporotrichosis patient after 72 hrs by Sensititre YeastOne method
Sporothrix schenckii [8] = assay: Antifungal activity against Sporothrix schenckii P20825 isolate from cutaneous-lymphatic sporotrichosis patient after 72 hrs by ATB Fungus 2 method
Sporothrix schenckii [9] = assay: Antifungal activity against Sporothrix schenckii P24223 isolate from cutaneous-lymphatic sporotrichosis patient after 72 hrs by ATB Fungus 2 method
Sporothrix schenckii [10] = assay: Antifungal activity against Sporothrix schenckii PSSA81 isolate from cutaneous-lymphatic sporotrichosis patient after 72 hrs by modified NCCLS M38-A method
Sporothrix schenckii [11] = assay: Antifungal activity against Sporothrix schenckii P25013 isolate from cutaneous-lymphatic sporotrichosis patient after 72 hrs by modified NCCLS M38-A method
Sporothrix schenckii [12] = assay: Antifungal activity against Sporothrix schenckii P30019 isolate from cutaneous-lymphatic sporotrichosis patient after 72 hrs by ATB Fungus 2 method
Sporothrix schenckii [13] = assay: Antifungal activity against Sporothrix schenckii isolate from cutaneous-lymphatic sporotrichosis patient after 72 hrs by modified NCCLS M38-A method
Sporothrix schenckii [14] = assay: Antifungal activity against Sporothrix schenckii P10012 isolate from cutaneous-lymphatic sporotrichosis patient after 72 hrs by ATB Fungus 2 method
Sporothrix schenckii [15] = assay: Antifungal activity against Sporothrix schenckii P14036 isolate from cutaneous-lymphatic sporotrichosis patient after 72 hrs by ATB Fungus 2 method
Sporothrix schenckii [16] = assay: Antifungal activity against Sporothrix schenckii P30019 isolate from cutaneous-lymphatic sporotrichosis patient after 72 hrs by modified NCCLS M38-A method
Sporothrix schenckii [17] = assay: Antifungal activity against Sporothrix schenckii isolate from cutaneous-lymphatic sporotrichosis patient after 72 hrs by ATB Fungus 2 method
Sporothrix schenckii [18] = assay: Antifungal activity against Sporothrix schenckii PSCC1 isolate from cutaneous-lymphatic sporotrichosis patient after 72 hrs by ATB Fungus 2 method
Sporothrix schenckii [19] = assay: Antifungal activity against Sporothrix schenckii P10012 isolate from cutaneous-lymphatic sporotrichosis patient after 72 hrs by modified NCCLS M38-A method
Sporothrix schenckii [20] = assay: Antifungal activity against Sporothrix schenckii isolate from cutaneous-lymphatic sporotrichosis patient after 72 hrs by Sensititre YeastOne method
Sporothrix schenckii [21] = assay: Antifungal activity against Sporothrix schenckii SSA29 isolate from cutaneous-lymphatic sporotrichosis patient after 72 hrs by Sensititre YeastOne method
Sporothrix schenckii [22] = assay: Antifungal activity against Sporothrix schenckii P30915 isolate from cutaneous-lymphatic sporotrichosis patient after 72 hrs by Sensititre YeastOne method
Pichia kudriavzevii [23] = assay: Antifungal activity against Candida krusei ATCC 6258 […] after 72 hrs by ATB Fungus 2 method; conditions: ATCC 6258, 72 h
Sporothrix schenckii [24] = assay: Antifungal activity against Sporothrix schenckii SSA29 isolate from cutaneous-lymphatic sporotrichosis patient after 72 hrs by ATB Fungus 2 method
Sporothrix schenckii [25] = assay: Antifungal activity against Sporothrix schenckii PSCC1 isolate from cutaneous-lymphatic sporotrichosis patient after 72 hrs by modified NCCLS M38-A method
Sporothrix schenckii [26] = assay: Antifungal activity against Sporothrix schenckii P26187 isolate from cutaneous-lymphatic sporotrichosis patient after 72 hrs by modified NCCLS M38-A method
Sporothrix schenckii [27] = assay: Antifungal activity against Sporothrix schenckii PJRC002 isolate from cutaneous-lymphatic sporotrichosis patient after 72 hrs by modified NCCLS M38-A method
Sporothrix schenckii [28] = assay: Antifungal activity against Sporothrix schenckii P20825 isolate from cutaneous-lymphatic sporotrichosis patient after 72 hrs by Sensititre YeastOne method
Sporothrix schenckii [29] = assay: Antifungal activity against Sporothrix schenckii MRSS4 isolate from cutaneous-lymphatic sporotrichosis patient after 72 hrs by ATB Fungus 2 method
Sporothrix schenckii [30] = assay: Antifungal activity against Sporothrix schenckii P14036 isolate from cutaneous-lymphatic sporotrichosis patient after 72 hrs by modified NCCLS M38-A method
Sporothrix schenckii [31] = assay: Antifungal activity against Sporothrix schenckii P14954 isolate from cutaneous-lymphatic sporotrichosis patient after 72 hrs by ATB Fungus 2 method
Sporothrix schenckii [32] = assay: Antifungal activity against Sporothrix schenckii P24223 isolate from cutaneous-lymphatic sporotrichosis patient after 72 hrs by modified NCCLS M38-A method
Pichia kudriavzevii [33] = assay: Antifungal activity against Candida krusei ATCC 6258 […] after 72 hrs by Sensititre YeastOne method; conditions: ATCC 6258, 72 h
Sporothrix schenckii [34] = assay: Antifungal activity against Sporothrix schenckii P25013 isolate from cutaneous-lymphatic sporotrichosis patient after 72 hrs by ATB Fungus 2 method
Sporothrix schenckii [35] = assay: Antifungal activity against Sporothrix schenckii PSCC1 isolate from cutaneous-lymphatic sporotrichosis patient after 72 hrs by Sensititre YeastOne method
Sporothrix schenckii [36] = assay: Antifungal activity against Sporothrix schenckii PGAC0016 isolate from cutaneous-lymphatic sporotrichosis patient after 72 hrs by Sensititre YeastOne method
Sporothrix schenckii [37] = assay: Antifungal activity against Sporothrix schenckii P1621 isolate from cutaneous-lymphatic sporotrichosis patient after 72 hrs by modified NCCLS M38-A method
Sporothrix schenckii [38] = assay: Antifungal activity against Sporothrix schenckii P14954 isolate from cutaneous-lymphatic sporotrichosis patient after 72 hrs by modified NCCLS M38-A method
Sporothrix schenckii [39] = assay: Antifungal activity against Sporothrix schenckii P30019 isolate from cutaneous-lymphatic sporotrichosis patient after 72 hrs by Sensititre YeastOne method
Sporothrix schenckii [40] = assay: Antifungal activity against Sporothrix schenckii P30915 isolate from cutaneous-lymphatic sporotrichosis patient after 72 hrs by modified NCCLS M38-A method
Sporothrix schenckii [41] = assay: Antifungal activity against Sporothrix schenckii P26187 isolate from cutaneous-lymphatic sporotrichosis patient after 72 hrs by Sensititre YeastOne method
Sporothrix schenckii [42] = assay: Antifungal activity against Sporothrix schenckii PJRC002 isolate from cutaneous-lymphatic sporotrichosis patient after 72 hrs by Sensititre YeastOne method
Sporothrix schenckii [43] = assay: Antifungal activity against Sporothrix schenckii PGAC0016 isolate from cutaneous-lymphatic sporotrichosis patient after 72 hrs by modified NCCLS M38-A method
Sporothrix schenckii [44] = assay: Antifungal activity against Sporothrix schenckii PSSA81 isolate from cutaneous-lymphatic sporotrichosis patient after 72 hrs by ATB Fungus 2 method
Candida parapsilosis = assay: Antifungal activity against Candida parapsilosis ATCC 22019 […] after 72 hrs by ATB Fungus 2 method; conditions: Lodderomyces parapsilosis, ATCC 22019, 72 h

CCC(C)n1ncn(-c2ccc(N3CCN(c4ccc(OCC5COC(Cn6cncn6)(c6ccc(Cl)cc6Cl)O5)cc4)CC3)cc2)c1=O (stereo not drawn) [ITRACONAZOLE]
MIC (Sporothrix schenckii [1]): 0.5 µg/mL (≈ 0.709 µM)
MIC (Sporothrix schenckii [2]): 2 µg/mL (≈ 2.83 µM)
MIC (Sporothrix schenckii [3]): 0.13 µg/mL (≈ 0.184 µM)
MIC (Sporothrix schenckii [4]): 0.5 µg/mL (≈ 0.709 µM)
MIC (Sporothrix schenckii [5]): 0.25 µg/mL (≈ 0.354 µM)
MIC (Sporothrix schenckii [6]): 0.5 µg/mL (≈ 0.709 µM)
MIC (Sporothrix schenckii [7]): 0.25 µg/mL (≈ 0.354 µM)
MIC (Sporothrix schenckii [8]): 1 µg/mL (≈ 1.42 µM)
MIC (Sporothrix schenckii [9]): 2 µg/mL (≈ 2.83 µM)
MIC (Sporothrix schenckii [10]): 0.5 µg/mL (≈ 0.709 µM)
MIC (Sporothrix schenckii [11]): 0.5 µg/mL (≈ 0.709 µM)
MIC (Sporothrix schenckii [12]): 1 µg/mL (≈ 1.42 µM)
MIC50 (Sporothrix schenckii [13]): 0.5 µg/mL (≈ 0.709 µM)
MIC90 (Sporothrix schenckii [13]): 0.5 µg/mL (≈ 0.709 µM)
MIC (Sporothrix schenckii [14]): 2 µg/mL (≈ 2.83 µM)
MIC (Sporothrix schenckii [15]): 1 µg/mL (≈ 1.42 µM)
MIC (Sporothrix schenckii [16]): 0.5 µg/mL (≈ 0.709 µM)
MIC50 (Sporothrix schenckii [17]): 1 µg/mL (≈ 1.42 µM)
MIC90 (Sporothrix schenckii [17]): 2 µg/mL (≈ 2.83 µM)
MIC (Sporothrix schenckii [18]): 1 µg/mL (≈ 1.42 µM)
MIC (Sporothrix schenckii [19]): 0.5 µg/mL (≈ 0.709 µM)
MIC50 (Sporothrix schenckii [20]): 0.25 µg/mL (≈ 0.354 µM)
MIC90 (Sporothrix schenckii [20]): 0.25 µg/mL (≈ 0.354 µM)
MIC (Sporothrix schenckii [21]): 0.25 µg/mL (≈ 0.354 µM)
MIC (Sporothrix schenckii [22]): 0.5 µg/mL (≈ 0.709 µM)
MIC (Pichia kudriavzevii [23]): 0.5 µg/mL (≈ 0.709 µM)
MIC (Sporothrix schenckii [24]): 0.5 µg/mL (≈ 0.709 µM)
MIC (Sporothrix schenckii [25]): 0.25 µg/mL (≈ 0.354 µM)
MIC (Sporothrix schenckii [26]): 0.5 µg/mL (≈ 0.709 µM)
MIC (Sporothrix schenckii [27]): 0.25 µg/mL (≈ 0.354 µM)
MIC (Sporothrix schenckii [28]): 0.13 µg/mL (≈ 0.184 µM)
MIC (Sporothrix schenckii [29]): 2 µg/mL (≈ 2.83 µM)
MIC (Sporothrix schenckii [30]): 0.5 µg/mL (≈ 0.709 µM)
MIC (Sporothrix schenckii [31]): 4 µg/mL (≈ 5.67 µM)
MIC (Sporothrix schenckii [32]): 8 µg/mL (≈ 11.3 µM)
MIC (Pichia kudriavzevii [33]): 1 µg/mL (≈ 1.42 µM)
MIC (Sporothrix schenckii [34]): 1 µg/mL (≈ 1.42 µM)
MIC (Sporothrix schenckii [35]): 0.25 µg/mL (≈ 0.354 µM)
MIC (Sporothrix schenckii [36]): 0.13 µg/mL (≈ 0.184 µM)
MIC (Sporothrix schenckii [37]): 1 µg/mL (≈ 1.42 µM)
MIC (Sporothrix schenckii [38]): 0.5 µg/mL (≈ 0.709 µM)
MIC (Sporothrix schenckii [39]): 0.25 µg/mL (≈ 0.354 µM)
MIC (Sporothrix schenckii [40]): 0.5 µg/mL (≈ 0.709 µM)
MIC (Sporothrix schenckii [41]): 0.13 µg/mL (≈ 0.184 µM)
MIC (Sporothrix schenckii [42]): 0.13 µg/mL (≈ 0.184 µM)
MIC (Sporothrix schenckii [43]): 0.5 µg/mL (≈ 0.709 µM)
MIC (Sporothrix schenckii [44]): 1 µg/mL (≈ 1.42 µM)
MIC (Candida parapsilosis): ≤ 0.125 µg/mL
